Source: paper PMC5218480 (PLoS ONE, 2017)

System: MV-4-11 cells
Experiment: Gene expression microarray analysis (Affymetrix PrimeView) and GSEA
Type: cell-based, human
Set-up: RFU PODN (11730768_x_at) / Fold change /veh PODN (11730768_x_at) / RFU LINC00158 (11744669_a_at) / Fold change /veh LINC00158 (11744669_a_at) / RFU DUSP10 (11751237_a_at) / Fold change /veh DUSP10 (11751237_a_at) / RFU ID3 (11757404_x_at) / Fold change /veh ID3 (11757404_x_at) / RFU PLEKHG5 (11737974_s_at) / Fold change /veh PLEKHG5 (11737974_s_at) / RFU LRRC4B (11730491_at) / Fold change /veh LRRC4B (11730491_at) / RFU GIMAP4 (11747438_a_at) / Fold change /veh GIMAP4 (11747438_a_at) / RFU KRT8 (11758183_x_at) / Fold change /veh KRT8 (11758183_x_at) / RFU CNN1 (11734310_a_at) / Fold change /veh CNN1 (11734310_a_at) / RFU VPS37D (11726825_at) / Fold change /veh VPS37D (11726825_at) / RFU C10orf10 (11716522_x_at) / Fold change /veh C10orf10 (11716522_x_at) / RFU KIR2DL2 /// KIR2DL4 /// KIR2DL5A /// KIR2DL5B /// KIR2DS1 /// KIR2DS2 /// KIR2DS3 /// KIR2DS4 /// KIR3DL3 /// KIR3DL3 /// KIR3DS1 (11738374_at) / Fold change /veh KIR2DL2 /// KIR2DL4 /// KIR2DL5A /// KIR2DL5B /// KIR2DS1 /// KIR2DS2 /// KIR2DS3 /// KIR2DS4 /// KIR3DL3 /// KIR3DL3 /// KIR3DS1 (11738374_at) / RFU C1QL1 (11718748_at) / Fold change /veh C1QL1 (11718748_at) / RFU TMPRSS4 (11747572_a_at) / Fold change /veh TMPRSS4 (11747572_a_at) / RFU HAMP (11756126_x_at) / Fold change /veh HAMP (11756126_x_at) / RFU RNFT2 (11725882_a_at) / Fold change /veh RNFT2 (11725882_a_at) / RFU NR4A2 (11747474_a_at) / Fold change /veh NR4A2 (11747474_a_at) / RFU ABCC12 (11746883_a_at) / Fold change /veh ABCC12 (11746883_a_at) / RFU TMEM136 (11760407_x_at) / Fold change /veh TMEM136 (11760407_x_at) / RFU CLDN22 /// WWC2 (11732394_at) / Fold change /veh CLDN22 /// WWC2 (11732394_at) / RFU HLA-DPB1 (11760878_x_at) / Fold change /veh HLA-DPB1 (11760878_x_at) / RFU SPINT1 (11716480_a_at) / Fold change /veh SPINT1 (11716480_a_at) / RFU GAP43 (11754022_s_at) / Fold change /veh GAP43 (11754022_s_at) / RFU A4GNT (11735810_at) / Fold change /veh A4GNT (11735810_at) / RFU PRB3 (11715151_x_at) / Fold change /veh PRB3 (11715151_x_at) / RFU TUBB4B (11761932_at) / Fold change /veh TUBB4B (11761932_at) / RFU CAPN14 (11732068_a_at) / Fold change /veh CAPN14 (11732068_a_at) / RFU TMCC2 (11721928_a_at) / Fold change /veh TMCC2 (11721928_a_at) / RFU IRGQ (11745062_a_at) / Fold change /veh IRGQ (11745062_a_at) / RFU FAM174B (11720279_a_at) / Fold change /veh FAM174B (11720279_a_at) / RFU TMPRSS4 (11748680_a_at) / Fold change /veh TMPRSS4 (11748680_a_at) / RFU FAM212B (11763350_a_at) / Fold change /veh FAM212B (11763350_a_at) / RFU PLEKHG5 (11743358_a_at) / Fold change /veh PLEKHG5 (11743358_a_at) / RFU ZSCAN30 (11745921_a_at) / Fold change /veh ZSCAN30 (11745921_a_at) / RFU CMKLR1 (11741424_a_at) / Fold change /veh CMKLR1 (11741424_a_at) / RFU LOC101060620 /// MAPK8IP1 (11723275_at) / Fold change /veh LOC101060620 /// MAPK8IP1 (11723275_at) / RFU SPTSSB (11747773_x_at) / Fold change /veh SPTSSB (11747773_x_at) / RFU PRSS12 (11739890_at) / Fold change /veh PRSS12 (11739890_at) / RFU BIN1 (11741810_x_at) / Fold change /veh BIN1 (11741810_x_at) / RFU WNT11 (11732464_a_at) / Fold change /veh WNT11 (11732464_a_at) / RFU C10orf10 (11716521_a_at) / Fold change /veh C10orf10 (11716521_a_at) / RFU C5orf56 (11738089_at) / Fold change /veh C5orf56 (11738089_at) / RFU CYB561 (11721691_x_at) / Fold change /veh CYB561 (11721691_x_at) / RFU ANKRD19P (11752326_a_at) / Fold change /veh ANKRD19P (11752326_a_at) / RFU OR2T12 /// OR2T33 /// OR2T8 (11738714_s_at) / Fold change /veh OR2T12 /// OR2T33 /// OR2T8 (11738714_s_at) / RFU VCAN (11748164_a_at) / Fold change /veh VCAN (11748164_a_at) / RFU JSRP1 (11732532_at) / Fold change /veh JSRP1 (11732532_at) / RFU KRTAP10-11 (11738290_x_at) / Fold change /veh KRTAP10-11 (11738290_x_at) / RFU MYO3A (11730013_a_at) / Fold change /veh MYO3A (11730013_a_at) / RFU EBF3 (11725865_a_at) / Fold change /veh EBF3 (11725865_a_at) / RFU CAMK2N1 (11719241_x_at) / Fold change /veh CAMK2N1 (11719241_x_at) / RFU C5orf56 (11738088_a_at) / Fold change /veh C5orf56 (11738088_a_at) / RFU OLFML3 (11715873_a_at) / Fold change /veh OLFML3 (11715873_a_at) / RFU LOC100653217 /// NTM (11731650_a_at) / Fold change /veh LOC100653217 /// NTM (11731650_a_at) / RFU MAPK11 (11762145_a_at) / Fold change /veh MAPK11 (11762145_a_at) / RFU FIZ1 (11724087_x_at) / Fold change /veh FIZ1 (11724087_x_at) / RFU OASL (11726364_x_at) / Fold change /veh OASL (11726364_x_at) / RFU SOX15 (11748057_x_at) / Fold change /veh SOX15 (11748057_x_at) / RFU CD79A (11719716_a_at) / Fold change /veh CD79A (11719716_a_at) / RFU HIST1H1D (11736915_at) / Fold change /veh HIST1H1D (11736915_at) / RFU CASKIN2 (11723855_a_at) / Fold change /veh CASKIN2 (11723855_a_at) / RFU LOC730098 (11760151_x_at) / Fold change /veh LOC730098 (11760151_x_at) / RFU OR4N2 (11742367_at) / Fold change /veh OR4N2 (11742367_at) / RFU PRRT2 (11749266_a_at) / Fold change /veh PRRT2 (11749266_a_at) / RFU SNX32 (11753110_a_at) / Fold change /veh SNX32 (11753110_a_at) / RFU CDHR5 (11726645_a_at) / Fold change /veh CDHR5 (11726645_a_at) / RFU RCAN1 (11760418_a_at) / Fold change /veh RCAN1 (11760418_a_at) / RFU FAM167A (11723789_a_at) / Fold change /veh FAM167A (11723789_a_at) / RFU FAM26E (11764081_at) / Fold change /veh FAM26E (11764081_at) / RFU ISYNA1 (11749810_s_at) / Fold change /veh ISYNA1 (11749810_s_at) / RFU ACY1 (11761880_at) / Fold change /veh ACY1 (11761880_at) / RFU 11764098_at / Fold change /veh 11764098_at / RFU SAMD14 (11745864_x_at) / Fold change /veh SAMD14 (11745864_x_at) / RFU NPB (11741838_a_at) / Fold change /veh NPB (11741838_a_at) / RFU TMPRSS6 (11731388_a_at) / Fold change /veh TMPRSS6 (11731388_a_at) / RFU KRTAP10-2 (11738614_at) / Fold change /veh KRTAP10-2 (11738614_at) / RFU ARHGAP8 /// PRR5-ARHGAP8 (11727945_x_at) / Fold change /veh ARHGAP8 /// PRR5-ARHGAP8 (11727945_x_at) / RFU KRTAP5-7 /// NADSYN1 (11734609_at) / Fold change /veh KRTAP5-7 /// NADSYN1 (11734609_at) / RFU RASL12 (11751679_a_at) / Fold change /veh RASL12 (11751679_a_at) / RFU CDKN2B (11736163_a_at) / Fold change /veh CDKN2B (11736163_a_at) / RFU PRF1 (11729649_at) / Fold change /veh PRF1 (11729649_at) / RFU, ZNF638 /// ZNF638-IT1 / Fold change vs veh, ZNF638 /// ZNF638-IT1 / RFU, PANK3 / Fold change vs veh, PANK3 / RFU, SH3YL1 / Fold change vs veh, SH3YL1 / RFU, ZEB2 / Fold change vs veh, ZEB2 / RFU, NRIP1 / Fold change vs veh, NRIP1 / RFU, PTTG1IP / Fold change vs veh, PTTG1IP / RFU, CAPN2 / Fold change vs veh, CAPN2 / RFU, MED14 / Fold change vs veh, MED14 / RFU, SNORA58 / Fold change vs veh, SNORA58 / RFU, C1orf63 / Fold change vs veh, C1orf63 / RFU, LRRFIP1 / Fold change vs veh, LRRFIP1 / RFU, NDUFAF7 / Fold change vs veh, NDUFAF7 / RFU, SLC12A2 / Fold change vs veh, SLC12A2 / RFU, IBTK / Fold change vs veh, IBTK / RFU, ESF1 / Fold change vs veh, ESF1 / Fold change vs veh, TMEM50B / RFU, TAOK1 / Fold change vs veh, TAOK1 / RFU, ACBD3 / Fold change vs veh, ACBD3 / RFU, TMA16 / Fold change vs veh, TMA16 / RFU, RWDD3 / Fold change vs veh, RWDD3 / RFU, BCAT1 / Fold change vs veh, BCAT1 / RFU, EDEM3 / Fold change vs veh, EDEM3 / RFU, TMEM33 / Fold change vs veh, TMEM33 / RFU, WDR75 / Fold change vs veh, WDR75 / RFU, AHCTF1 / Fold change vs veh, AHCTF1 / RFU, TFRC / Fold change vs veh, TFRC / RFU, ZDHHC17 / Fold change vs veh, ZDHHC17 / RFU, NOM1 / Fold change vs veh, NOM1 / RFU, ARL8B / Fold change vs veh, ARL8B / RFU, ZBTB11 / Fold change vs veh, ZBTB11 / RFU, TAMM41 / Fold change vs veh, TAMM41 / RFU, KIAA1704 /// LOC100996395 / Fold change vs veh, KIAA1704 /// LOC100996395 / RFU, ING1 / Fold change vs veh, ING1 / RFU, TRMT61B / Fold change vs veh, TRMT61B / RFU, FUBP3 / Fold change vs veh, FUBP3 / RFU, TP53 / Fold change vs veh, TP53 / RFU, TNKS2 / Fold change vs veh, TNKS2 / RFU, ZFP14 / Fold change vs veh, ZFP14 / RFU, ACTR2 / Fold change vs veh, ACTR2 / RFU, PPP3R1 / Fold change vs veh, PPP3R1 / RFU, PIK3R1 / Fold change vs veh, PIK3R1 / RFU, HNRNPA1 / Fold change vs veh, HNRNPA1 / RFU, RNF170 / Fold change vs veh, RNF170 / RFU, ZNF28 / Fold change vs veh, ZNF28 / RFU, RNGTT / Fold change vs veh, RNGTT / RFU, OGT / Fold change vs veh, OGT / RFU, BRD1 / Fold change vs veh, BRD1 / RFU, MARS / Fold change vs veh, MARS / RFU, ZNF655 / Fold change vs veh, ZNF655 / RFU, FAHD1 / Fold change vs veh, FAHD1 / RFU, BDP1 / Fold change vs veh, BDP1 / RFU, LRRCC1 / Fold change vs veh, LRRCC1 / RFU, ARID1A / Fold change vs veh, ARID1A / RFU, ZNF146 / Fold change vs veh, ZNF146 / RFU, ZNF330 / Fold change vs veh, ZNF330 / RFU, GPN3 / Fold change vs veh, GPN3 / RFU, C9orf123 / Fold change vs veh, C9orf123 / RFU, N4BP2L2 / Fold change vs veh, N4BP2L2 / RFU, ARFIP1 / Fold change vs veh, ARFIP1 / RFU, FAM179B / Fold change vs veh, FAM179B / RFU, BCL10 / Fold change vs veh, BCL10 / RFU, UHRF1BP1L / Fold change vs veh, UHRF1BP1L / RFU, BET1 / Fold change vs veh, BET1 / RFU, CNOT2 / Fold change vs veh, CNOT2 / RFU, ZNF268 / Fold change vs veh, ZNF268 / Fold change vs veh, ZNF507 / RFU, DGCR2 / Fold change vs veh, DGCR2 / RFU, WDSUB1 / Fold change vs veh, WDSUB1 / Fold change vs veh, HSP90B1 /// MIR3652 / RFU, ADSS / Fold change vs veh, ADSS / RFU, GK / Fold change vs veh, GK / RFU, ZNF148 / Fold change vs veh, ZNF148 / RFU, TAF9 / Fold change vs veh, TAF9 / RFU, SLC1A5 / Fold change vs veh, SLC1A5 / RFU, SLMO2 / Fold change vs veh, SLMO2 / RFU, ABCC4 / Fold change vs veh, ABCC4 / RFU, LOC101060439 /// RAP1B / Fold change vs veh, LOC101060439 /// RAP1B / RFU, RFX7 / Fold change vs veh, RFX7 / RFU, GTPBP10 / Fold change vs veh, GTPBP10 / RFU, CNEP1R1 / Fold change vs veh, CNEP1R1 / RFU, BIVM-ERCC5 /// ERCC5 / Fold change vs veh, BIVM-ERCC5 /// ERCC5 / RFU, ILF3 / Fold change vs veh, ILF3 / RFU 11762660_at / Fold change /veh 11762660_at / RFU VCAN (11757783_s_at) / Fold change /veh VCAN (11757783_s_at) / RFU DDX43 (11728927_at) / Fold change /veh DDX43 (11728927_at) / RFU KRT8 (11758188_x_at) / Fold change /veh KRT8 (11758188_x_at) / RFU NKD1 (11759106_at) / Fold change /veh NKD1 (11759106_at) / RFU SRD5A1 (11742802_a_at) / Fold change /veh SRD5A1 (11742802_a_at) / RFU TPSAB1 /// TPSB2 (11721975_s_at) / Fold change /veh TPSAB1 /// TPSB2 (11721975_s_at) / RFU GSTM3 (11746129_a_at) / Fold change /veh GSTM3 (11746129_a_at) / RFU IL23R (11737362_x_at) / Fold change /veh IL23R (11737362_x_at) / RFU TMEM51 (11727254_a_at) / Fold change /veh TMEM51 (11727254_a_at) / RFU PIWIL2 (11732686_x_at) / Fold change /veh PIWIL2 (11732686_x_at) / RFU ORM1 (11744905_x_at) / Fold change /veh ORM1 (11744905_x_at) / RFU CCDC152 (11743942_at) / Fold change /veh CCDC152 (11743942_at) / RFU ECM1 (11717891_a_at) / Fold change /veh ECM1 (11717891_a_at) / RFU IL23R (11748794_a_at) / Fold change /veh IL23R (11748794_a_at) / RFU TNFAIP8L3 (11732012_x_at) / Fold change /veh TNFAIP8L3 (11732012_x_at) / RFU MBOAT4 (11741988_at) / Fold change /veh MBOAT4 (11741988_at) / RFU 11764193_at / Fold change /veh 11764193_at / RFU TMEM53 (11763286_at) / Fold change /veh TMEM53 (11763286_at) / RFU MAGEB2 (11727129_at) / Fold change /veh MAGEB2 (11727129_at) / RFU TMEM200A (11744735_a_at) / Fold change /veh TMEM200A (11744735_a_at) / RFU CCDC152 (11751479_a_at) / Fold change /veh CCDC152 (11751479_a_at) / RFU FAM211A (11726209_a_at) / Fold change /veh FAM211A (11726209_a_at) / RFU RGS16 (11746705_a_at) / Fold change /veh RGS16 (11746705_a_at) / RFU VCAN (11755009_s_at) / Fold change /veh VCAN (11755009_s_at) / RFU RHOB (11743442_s_at) / Fold change /veh RHOB (11743442_s_at) / RFU RGS16 (11720943_a_at) / Fold change /veh RGS16 (11720943_a_at) / RFU RGS16 (11720944_at) / Fold change /veh RGS16 (11720944_at) / RFU, VPS4B / Fold change vs veh, VPS4B / RFU, CREB1 / Fold change vs veh, CREB1 / RFU, DNAJC13 / Fold change vs veh, DNAJC13 / RFU, GNAQ / Fold change vs veh, GNAQ / RFU, CDK5R1 / Fold change vs veh, CDK5R1 / RFU, ZRANB3 / Fold change vs veh, ZRANB3 / RFU, CUL4A / Fold change vs veh, CUL4A / RFU, CCNY / Fold change vs veh, CCNY / RFU, UFL1 / Fold change vs veh, UFL1 / RFU, COG3 / Fold change vs veh, COG3 / RFU, DIAPH2 / Fold change vs veh, DIAPH2 / RFU, SKA2 / Fold change vs veh, SKA2 / RFU, AFF3 / Fold change vs veh, AFF3 / RFU, LMF1 / Fold change vs veh, LMF1 / RFU, IPO11 / Fold change vs veh, IPO11 / RFU, DFFB / Fold change vs veh, DFFB / RFU, FOXP1 / Fold change vs veh, FOXP1 / RFU, CARD8 / Fold change vs veh, CARD8 / RFU, STRN3 / Fold change vs veh, STRN3 / RFU, ADK / Fold change vs veh, ADK / RFU, RASSF2 / Fold change vs veh, RASSF2 / RFU, WIPF1 / Fold change vs veh, WIPF1 / RFU, LARP1B / Fold change vs veh, LARP1B / RFU, RASA1 / Fold change vs veh, RASA1 / RFU, RB1 / Fold change vs veh, RB1 / RFU, PPFIA1 / Fold change vs veh, PPFIA1 / RFU, MAT2A / Fold change vs veh, MAT2A / RFU, CCT5 / Fold change vs veh, CCT5 / RFU, WDR92 / Fold change vs veh, WDR92 / RFU, CUX1 / Fold change vs veh, CUX1 / RFU, TTC7A / Fold change vs veh, TTC7A / RFU, TMEM135 / Fold change vs veh, TMEM135 / RFU, DEPTOR / Fold change vs veh, DEPTOR / RFU, CPM / Fold change vs veh, CPM / RFU, DNAJB6 / Fold change vs veh, DNAJB6 / RFU, CACNA2D3 / Fold change vs veh, CACNA2D3 / RFU, DTX4 / Fold change vs veh, DTX4 / RFU, TFCP2 / Fold change vs veh, TFCP2 / RFU, GMCL1 /// GMCL1P1 / Fold change vs veh, GMCL1 /// GMCL1P1 / RFU, AEBP2 / Fold change vs veh, AEBP2 / RFU, SNHG1 /// SNORD22 /// SNORD25 /// SNORD26 /// SNORD27 /// SNORD28 /// SNORD29 /// SNORD31 / Fold change vs veh, SNHG1 /// SNORD22 /// SNORD25 /// SNORD26 /// SNORD27 /// SNORD28 /// SNORD29 /// SNORD31 / Fold change (Aza/veh), C12orf56 (ProbeSet 11735607_a_at) / Fold change (ACY-1035/veh), C12orf56 (ProbeSet 11735607_a_at) / Fold change (Aza/veh), FGFR1OP (ProbeSet 11751329_s_at) / Fold change (ACY-1035/veh), FGFR1OP (ProbeSet 11751329_s_at) / Fold change (Aza/veh), VPS36 (ProbeSet 11739960_a_at) / Fold change (ACY-1035/veh), VPS36 (ProbeSet 11739960_a_at) / RFU SYPL1 (11715823_x_at) / Fold change /veh SYPL1 (11715823_x_at) / RFU IGFBP7 (11715501_s_at) / Fold change /veh IGFBP7 (11715501_s_at) / RFU REEP3 (11722064_at) / Fold change /veh REEP3 (11722064_at) / RFU IGLL1 (11728026_x_at) / Fold change /veh IGLL1 (11728026_x_at): dose or concentration left out as unconfirmed
Conditions: MV-4-11 cells, 48 hours

Structure (SMILES): Nc1ccc(-c2cccs2)cc1NC(=O)c1ccc2c(c1)cc(C1CC1)n2CCN1CCOCC1 [ACY-1035]
- Fold change /veh TMEM136 (11760407_x_at): 1.12
